Assay results as given in patent US9708293B2, “N-(pyridin-2-yl)pyrimidin-4-amine derivatives containing a sulfone group” (BAYER PHARMA AKTIENGESELLSCHAFT, priority 2012, dated 2017).

Experiments:
[1] = target: T1, CDK2/CycE (Homo sapiens, UniProt P24941); assay: CDK2/CycE high ATP kinase assay (Method 2b); assay type: biochemical; conditions: 2 mM ATP, read-out: high ATP CDK2: CDK2/CycE1 kinase assay IC50
T1 construct: GST; purchased ProQinase GmbH (Freiburg, Germany); host or cells: insect cells (Sf9)
Experimental: 2b. CDK2/CycE High ATP Kinase Assay
CDK2/CycE-inhibitory activity of compounds of the present invention at 2 mM adenosine-tri-phosphate (ATP) was quantified employing the CDK2/CycE TR-FRET (TR-FRET=Time Resolved Fluorescence Energy Transfer) assay as described in the following paragraphs.
(§1) Recombinant fusion proteins of GST and human CDK2 and of GST and human CycE, expressed in insect cells (Sf9) and purified by Glutathion-Sepharose affinity chromatography, were purchase from ProQinase GmbH (Freiburg, Germany). As substrate for the kinase reaction biotinylated peptide biotin-Ttds-YISPLKSPYKISEG (C-terminus in amid form) was used which can be purchased e.g. form the company JERINI peptide technologies (Berlin, Germany).
For the assay 50 nl of a 100 fold concentrated solution of the test compound in DMSO was pipetted into a black low volume 384 well microtiter plate (Greiner Bio-One, Frickenhausen, Germany), 2 μl of a solution of CDK2/CycE in aqueous assay buffer [50 mM Tris/HCl pH 8.0, 10 mM MgCl2, 1.0 mM dithiothreitol, 0.1 mM sodium ortho-vanadate, 0.01% (v/v) Nonidet-P40 (Sigma)] were added and the mixture was incubated for 15 min at 22° C. to allow pre-binding of the test compounds to the enzyme before the start of the kinase reaction. Then the kinase reaction was started by the addition of 3 μl of a solution ATP (3.33 mM=>final conc. in the 5 μl assay volume is 2 mM) and substrate (1.25 μM=>final conc. in the 5 μl assay volume is 0.75 μM) in assay buffer and the resulting mixture was incubated for a reaction time of […] at 22° C. The concentration of CDK2/CycE was adjusted depending of the activity of the enzyme lot and was chosen appropriate to have the assay in the linear range, typical concentrations were in the range of 15 ng/ml. […]
(§2) The resulting mixture was incubated 1 h at 22° C. to allow the formation of complex between the phosphorylated biotinylated peptide and the detection reagents. Subsequently the amount of phosphorylated substrate was evaluated by measurement of the resonance energy transfer from the Eu-chelate to the streptavidine-XL. Therefore, the fluorescence emissions at 620 nm and 665 nm after excitation at 350 nm wer measured in a TR-FRET reader, e.g. a Rubystar (BMG Labtechnologies, Offenburg, Germany) or a Viewlux (Perkin-Elmer). […]

[2] = target: T1, CDK2/CycE; assay: CDK2/CycE kinase assay (Method 2a); assay type: biochemical; conditions: 10 μM ATP
Source text: 2a. CDK2/CycE Kinase Assay:
CDK2/CycE-inhibitory activity of compounds of the present invention was quantified employing the CDK2/CycE TR-FRET assay as described in the following paragraphs:
as §1, with “were purchased” for “were purchase”, “JERINI Peptide Technologies” for “JERINI peptide technologies”
For the assay 50 nl of a 100 fold concentrated solution of the test compound in DMSO was pipetted into a black low volume 384 well microtiter plate (Greiner Bio-One, Frickenhausen, Germany), 2 μl of a solution of CDK2/CycE in aqueous assay buffer [50 mM Tris/HCl pH 8.0, 10 mM MgCl2, 1.0 mM dithiothreitol, 0.1 mM sodium ortho-vanadate, 0.01% (v/v) Nonidet-P40 (Sigma)] were added and the mixture was incubated for 15 min at 22° C. to allow pre-binding of the test compounds to the enzyme before the start of the kinase reaction. Then the kinase reaction was started by the addition of 3 μl of a solution of adenosine-tri-phosphate (ATP, 16.7 μM=>final conc. in the 5 μl assay volume is 10 μM) and substrate (1.25 μM=>final conc. in the 5 μl assay volume is 0.75 μM) in assay buffer and the resulting mixture was incubated for a reaction time of 25 min at 22° C. The concentration of CDK2/CycE was adjusted depending of the activity of the enzyme lot and was chosen appropriate to have the assay in the linear range, typical concentrations were in the range of 130 ng/mL. The reaction was stopped by the addition of 5 μl of a solution of TR-FRET detection reagents (0.2 μM streptavidine-XL665 [Cisbio Bioassays, Codolet, France] and 1 nM anti-RB(pSer807/pSer811)-antibody from BD Pharmingen [#558389] and 1.2 nM LANCE EU-W1024 labeled anti-mouse IgG antibody [Perkin-Elmer, product no. AD0077]) in an aqueous EDTA-solution (100 mM EDTA, 0.2% (w/v) bovine serum albumin in 100 mM HEPES/NaOH pH 7.0).
as §2, with “was” for “wer”, “(Perkin-Elmer). The ratio of the emissions at 665 nm and at […] was taken as the measure for the amount of phosphorylated substrate.” for “(Perkin-Elmer).”

| IC50 [1] | IC50 [2] | SMILES |
| --- | --- | --- |
| ≥ 20000 nM | 280 nM | COc1cc(F)ccc1-c1cc(Nc2cc(CS(C)(=O)=O)ccn2)ncn1 [Example 1, 6-(4-Fluoro-2-methoxyphenyl)-N-{4-[(methylsulfonyl)methyl]pyridin-2-yl}pyrimidin-4-amine] |
| 2250 nM | 90 nM | COc1cc(F)ccc1-c1cc(Nc2cc(CS(C)(=O)=O)cc(C)n2)ncn1 [Example 2, 6-(4-Fluoro-2-methoxyphenyl)-N-{6-methyl-4-[(methylsulfonyl)methyl]pyridin-2-yl}pyrimidin-4-amine] |
| 371 nM | 73 nM | COc1cc(F)ccc1-c1cc(Nc2cc(CS(C)(=O)=O)cc(C(F)(F)F)n2)ncn1 [Example 3, 6-(4-Fluoro-2-methoxyphenyl)-N-{4-[(methylsulfonyl)methyl]-6-(trifluoromethyl)pyridin-2-yl}pyrimidin-4-amine] |
| 1870 nM | 92 nM | COc1cc(F)ccc1-c1cc(Nc2cc(CS(C)(=O)=O)cc(F)n2)ncn1 [Example 4, 6-(4-Fluoro-2-methoxyphenyl)-N-{6-fluoro-4-[(methylsulfonyl)methyl]pyridin-2-yl}pyrimidin-4-amine] |
